Experimental data from patent publication US20120178766A1, “FUROPYRIMIDINEDIONE DERIVATIVES AS TRPAI MODULATORS” (priority 2009, published 2012).

Key:
rat TRPA1 = molecular target: T1, rat TRPA1 (Rattus norvegicus, UniProt Q6RI86); experiment: 45Calcium uptake assay: inhibition of AITC induced cellular uptake of radioactive calcium, rat TRPA1 expressing CHO cells; type: cell-based; settings: AITC 10 μM; for IC50: class symbols; for inhibition at 10 µM: 10.0 μM compound, read-out: rat TRPA1 Percentage inhibition at 10.0 μM; for inhibition at 1 µM: read-out: rat TRPA1 Percentage inhibition
T1 construct: expressed in transfected cells; host or cells: CHO cells (Zeocin selection)
T1 sequence (Q6RI86 whole entry): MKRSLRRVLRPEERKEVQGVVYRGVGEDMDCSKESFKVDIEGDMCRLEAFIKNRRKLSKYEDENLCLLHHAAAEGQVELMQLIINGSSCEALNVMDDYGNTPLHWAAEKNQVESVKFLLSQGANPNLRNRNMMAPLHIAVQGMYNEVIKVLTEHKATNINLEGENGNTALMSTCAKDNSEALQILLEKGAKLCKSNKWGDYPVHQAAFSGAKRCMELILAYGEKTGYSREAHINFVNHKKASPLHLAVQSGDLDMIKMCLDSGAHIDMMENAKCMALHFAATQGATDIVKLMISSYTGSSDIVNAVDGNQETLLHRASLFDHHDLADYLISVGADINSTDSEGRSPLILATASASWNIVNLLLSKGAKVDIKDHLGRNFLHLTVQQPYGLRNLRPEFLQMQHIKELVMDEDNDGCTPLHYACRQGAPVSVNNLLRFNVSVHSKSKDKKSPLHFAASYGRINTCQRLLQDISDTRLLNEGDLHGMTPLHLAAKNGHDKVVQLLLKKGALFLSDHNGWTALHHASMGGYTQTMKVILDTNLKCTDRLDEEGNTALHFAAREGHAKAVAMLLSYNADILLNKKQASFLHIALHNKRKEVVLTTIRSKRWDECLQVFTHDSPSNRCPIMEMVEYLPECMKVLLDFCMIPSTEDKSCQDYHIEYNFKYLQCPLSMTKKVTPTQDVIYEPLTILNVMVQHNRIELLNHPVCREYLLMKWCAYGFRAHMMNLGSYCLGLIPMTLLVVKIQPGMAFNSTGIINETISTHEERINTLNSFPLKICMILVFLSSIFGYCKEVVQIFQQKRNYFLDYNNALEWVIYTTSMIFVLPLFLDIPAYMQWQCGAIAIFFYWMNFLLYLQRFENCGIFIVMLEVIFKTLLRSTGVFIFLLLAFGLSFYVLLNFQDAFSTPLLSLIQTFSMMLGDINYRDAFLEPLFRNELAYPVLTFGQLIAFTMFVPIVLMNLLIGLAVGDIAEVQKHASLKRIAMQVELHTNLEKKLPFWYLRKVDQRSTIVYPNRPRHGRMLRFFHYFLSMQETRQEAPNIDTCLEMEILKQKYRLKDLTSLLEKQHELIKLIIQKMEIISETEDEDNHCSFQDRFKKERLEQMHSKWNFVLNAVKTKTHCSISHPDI
Outline: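 CHO cells expressing rat or human TRPA1 were pre-treated with compound for 10 min, then given AITC (30 μM human, 10 μM rat) plus 5 μCi/ml 45Ca2+ for 3 min; final DMSO 0.5%. Lysate radioactivity was counted by scintillation. IC50 came from nonlinear regression of concentration-response curves as % of maximal response.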

human TRPA1 = molecular target: T2, human TRPA1 (Homo sapiens, UniProt O75762); experiment: 45Calcium uptake assay: inhibition of AITC induced cellular uptake of radioactive calcium, human TRPA1 expressing CHO cells; type: cell-based; settings: AITC 30 μM
T2 construct: expressed in transfected cells; host or cells: CHO cells (G-418 selection)
T2 sequence (O75762 whole entry): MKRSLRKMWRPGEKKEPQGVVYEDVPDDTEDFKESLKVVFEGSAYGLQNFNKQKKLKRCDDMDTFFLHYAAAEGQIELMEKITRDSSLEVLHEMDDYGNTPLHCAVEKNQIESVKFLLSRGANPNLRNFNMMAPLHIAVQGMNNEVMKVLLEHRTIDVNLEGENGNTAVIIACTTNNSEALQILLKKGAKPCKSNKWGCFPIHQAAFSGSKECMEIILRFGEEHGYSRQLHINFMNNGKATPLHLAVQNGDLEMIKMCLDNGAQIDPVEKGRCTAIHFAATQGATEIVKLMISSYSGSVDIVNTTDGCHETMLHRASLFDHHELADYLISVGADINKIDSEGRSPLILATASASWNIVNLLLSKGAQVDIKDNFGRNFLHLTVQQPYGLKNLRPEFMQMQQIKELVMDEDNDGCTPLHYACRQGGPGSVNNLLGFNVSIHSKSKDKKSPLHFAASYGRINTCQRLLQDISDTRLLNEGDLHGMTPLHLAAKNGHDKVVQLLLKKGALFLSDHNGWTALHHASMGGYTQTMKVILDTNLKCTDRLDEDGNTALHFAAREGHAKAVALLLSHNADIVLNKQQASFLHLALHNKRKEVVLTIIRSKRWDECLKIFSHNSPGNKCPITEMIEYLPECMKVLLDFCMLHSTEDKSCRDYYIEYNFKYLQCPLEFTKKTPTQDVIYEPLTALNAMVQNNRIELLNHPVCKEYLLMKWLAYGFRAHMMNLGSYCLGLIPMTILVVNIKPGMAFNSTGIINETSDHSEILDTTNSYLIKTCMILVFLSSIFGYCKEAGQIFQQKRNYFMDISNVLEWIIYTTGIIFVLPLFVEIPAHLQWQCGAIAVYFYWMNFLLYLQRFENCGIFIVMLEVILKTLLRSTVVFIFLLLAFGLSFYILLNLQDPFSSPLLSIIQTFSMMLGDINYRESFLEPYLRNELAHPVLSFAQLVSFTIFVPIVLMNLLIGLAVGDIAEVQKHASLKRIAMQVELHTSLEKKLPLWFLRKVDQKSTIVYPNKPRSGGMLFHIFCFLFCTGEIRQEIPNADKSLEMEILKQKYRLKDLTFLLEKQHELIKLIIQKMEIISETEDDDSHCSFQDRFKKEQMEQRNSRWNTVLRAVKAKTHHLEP
Outline: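 CHO cells expressing TRPA1 were preincubated 10 min with compound (0.5% DMSO final), then given AITC (30 μM human, 10 μM rat) plus 5 μCi/ml 45Ca2+ for 3 min. Lysate radioactivity measured by scintillation; IC50 obtained by nonlinear regression of % maximal response without antagonist.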

SMILES	IC50 (rat TRPA1) [µM]	IC50 (human TRPA1; class symbols) [µM]	inhibition at 10 µM (rat TRPA1) [%]	inhibition at 1 µM (rat TRPA1) [%]	IC50 (human TRPA1; numeric values) [µM]
Cc1oc2c(c1CC(=O)Nc1nc(-c3ccc(OC(F)(F)F)c(Cl)c3)cs1)c(=O)n(C)c(=O)n2C [Example 70, N1-{4-[3-Chloro-4-(trifluoromethoxy)phenyl]-1,3-thiazol-2-yl}-2-(1,3,6-trimethyl-2,4-dioxo-1,2,3,4-tetrahydrofuro[2,3-d]pyrimidin-5-yl)acetamide]	< 0.05	< 0.05	–	–	–
Cc1oc2c(c1CC(=O)Nc1nc(-c3cc(Cl)cc(OC(F)(F)F)c3)cs1)c(=O)n(C)c(=O)n2C [Example 71]	0.05 to 0.1	< 0.05	–	–	–
Cc1oc2c(c1CC(=O)Nc1nc(-c3ccc(OC(F)F)c(Cl)c3)cs1)c(=O)n(C)c(=O)n2C [Example 72, N1-{4-[3-Chloro-4-(difluoromethoxy)phenyl]-1,3-thiazol-2-yl}-2-(1,3,6-trimethyl-2,4-dioxo-1,2,3,4-tetrahydrofuro[2,3-d]pyrimidin-5-yl)acetamide]	> 0.1	< 0.05	100	100	–
Cc1oc2c(c1CC(=O)Nc1nc(-c3ccc(OCC(F)(F)F)c(F)c3)cs1)c(=O)n(C)c(=O)n2C [Example 73, N1-{4-[3-Fluoro-4-(2,2,2-trifluoroethoxy)phenyl]-1,3-thiazol-2-yl}-2-(1,3,6-trimethyl-2,4-dioxo-1,2,3,4-tetrahydrofuro[2,3-d]pyrimidin-5-yl)acetamide]	–	< 0.05	100	100	–
Cc1oc2c(c1CC(=O)Nc1nc(-c3ccc(OCC(F)(F)F)c(Cl)c3)cs1)c(=O)n(C)c(=O)n2C [Example 74, N1-{4-[3-Chloro-4-(2,2,2-trifluoroethoxy)phenyl]-1,3-thiazol-2-yl}-2-(1,3,6-trimethyl-2,4-dioxo-1,2,3,4-tetrahydrofuro[2,3-d]pyrimidin-5-yl)acetamide]	< 0.05	< 0.05	100	100	–
Cc1oc2c(c1CC(=O)Nc1nc(-c3cc(F)c(F)cc3F)cs1)c(=O)n(C)c(=O)n2C [Example 75, N1-[4-(2,4,5-Trifluorophenyl)-1,3-thiazol-2-yl]-2-(1,3,6-trimethyl-2,4-dioxo-1,2,3,4-tetrahydrofuro[2,3-d]pyrimidin-5-yl)acetamide]	0.05 to 0.1	–	–	–	0.0185
Cc1oc2c(c1CC(=O)Nc1nc(-c3cc(F)c(F)c(F)c3)cs1)c(=O)n(C)c(=O)n2C [Example 76, N1-[4-(3,4,5-Trifluorophenyl)-1,3-thiazol-2-yl]-2-(1,3,6-trimethyl-2,4-dioxo-1,2,3,4-tetrahydrofuro[2,3-d]pyrimidin-5-yl)acetamide]	0.05 to 0.1	–	–	–	0.00765
Cc1oc2c(c1CC(=O)Nc1nc(-c3ccc(F)c(F)c3F)cs1)c(=O)n(C)c(=O)n2C [Example 77, N1-[4-(2,3,4-Trifluorophenyl)-1,3-thiazol-2-yl]-2-(1,3,6-trimethyl-2,4-dioxo-1,2,3,4-tetrahydrofuro[2,3-d]pyrimidin-5-yl)acetamide]	–	–	98.5	99.2	0.0192
Cc1oc2c(c1CC(=O)Nc1nc(-c3ccc(F)c(Cl)c3F)cs1)c(=O)n(C)c(=O)n2C [Example 78, N1-[4-(3-Chloro-2,4-difluorophenyl)-1,3-thiazol-2-yl]-2-(1,3,6-trimethyl-2,4-dioxo-1,2,3,4-tetrahydrofuro[2,3-d]pyrimidin-5-yl)acetamide]	–	–	94.8	94.5	0.0345
Cc1oc2c(c1CC(=O)Nc1nc(-c3cc(F)c(OCC(C)(C)C)c(F)c3)cs1)c(=O)n(C)c(=O)n2C [Example 80]	< 0.05	–	–	–	0.00363
Cc1oc2c(c1CC(=O)Nc1nc(-c3cc(F)c(OCC(C)C)c(F)c3)cs1)c(=O)n(C)c(=O)n2C [Example 81, N1-[4-(3,5-Difluoro-4-isobutoxyphenyl)-1,3-thiazol-2-yl]-2-(1,3,6-trimethyl-2,4-dioxo-1,2,3,4-tetrahydrofuro[2,3-d]pyrimidin-5-yl)acetamide]	0.05 to 0.1	–	99.2	100	0.00463
Cc1oc2c(c1CC(=O)Nc1nc(-c3cc(Cl)c(OCC(C)C)c(Cl)c3)cs1)c(=O)n(C)c(=O)n2C [Example 82, N1-[4-(3,5-Dichloro-4-isobutoxyphenyl)-1,3-thiazol-2-yl]-2-(1,3,6-trimethyl-2,4-dioxo-1,2,3,4-tetrahydrofuro[2,3-d]pyrimidin-5-yl)acetamide]	< 0.05	–	100	100	0.00334
Cc1oc2c(c1CC(=O)Nc1nc(-c3ccc(F)c(C(F)(F)F)c3F)cs1)c(=O)n(C)c(=O)n2C [Example 83, N1-{4-[2,4-Difluoro-3-(trifluoromethyl)phenyl]-1,3-thiazol-2-yl}-2-(1,3,6-trimethyl-2,4-dioxo-1,2,3,4-tetrahydrofuro[2,3-d]pyrimidin-5-yl)acetamide]	< 0.05	–	–	–	0.00452
Cc1oc2c(c1CC(=O)Nc1nc(-c3cc(F)c(C(F)(F)F)c(F)c3)cs1)c(=O)n(C)c(=O)n2C [Example 84, N1-{4-[3,5-Difluoro-4-(trifluoromethyl)phenyl]-1,3-thiazol-2-yl}-2-(1,3,6-trimethyl-2,4-dioxo-1,2,3,4-tetrahydrofuro[2,3-d]pyrimidin-5-yl)acetamide]	< 0.05	–	–	–	0.00416
Cc1oc2c(c1CC(=O)Nc1nc(-c3cc(F)c(OC(F)F)c(F)c3)cs1)c(=O)n(C)c(=O)n2C [Example 85, N1-{4-[3,5-Difluoro-4-(difluoromethoxy)phenyl]-1,3-thiazol-2-yl}-2-(1,3,6-trimethyl-2,4-dioxo-1,2,3,4-tetrahydrofuro[2,3-d]pyrimidin-5-yl)acetamide]	–	–	100	100	0.00657
Cc1oc2c(c1CC(=O)Nc1nc(-c3cc(Cl)c(OC(F)F)c(Cl)c3)cs1)c(=O)n(C)c(=O)n2C [Example 86, N1-{4-[3,5-Dichloro-4-(difluoromethoxy)phenyl]-1,3-thiazol-2-yl}-2-(1,3,6-trimethyl-2,4-dioxo-1,2,3,4-tetrahydrofuro[2,3-d]pyrimidin-5-yl)acetamide]	< 0.05	–	95.4	99.1	0.00411
Cc1oc2c(c1CC(=O)Nc1nc(-c3cc(F)c(OCC(F)(F)F)c(F)c3)cs1)c(=O)n(C)c(=O)n2C [Example 87, N1-{4-[3,5-Difluoro-4-(2,2,2-trifluoroethoxy)phenyl]-1,3-thiazol-2-yl}-2-(1,3,6-trimethyl-2,4-dioxo-1,2,3,4-tetrahydrofuro[2,3-d]pyrimidin-5-yl)acetamide]	< 0.05	–	–	–	0.00168
Cc1oc2c(c1CC(=O)Nc1nc(-c3cc(Cl)c(OCC(F)(F)F)c(Cl)c3)cs1)c(=O)n(C)c(=O)n2C [Example 88, N1-{4-[3,5-Dichloro-4-(2,2,2-trifluoroethoxy)phenyl]-1,3-thiazol-2-yl}-2-(1,3,6-trimethyl-2,4-dioxo-1,2,3,4-tetrahydrofuro[2,3-d]pyrimidin-5-yl)acetamide]	–	–	100	98.3	0.00177
Cc1oc2c(c1CC(=O)Nc1nc(-c3cc(F)c(OCC4CC4)c(F)c3)cs1)c(=O)n(C)c(=O)n2C [Example 89, N1-{4-[4-(Cyclopropylmethoxy)-3,5-difluorophenyl]-1,3-thiazol-2-yl]-2-(1,3,6-trimethyl-2,4-dioxo-1,2,3,4-tetrahydrofuro[2,3-d]pyrimidin-5-yl)acetamide]	0.05 to 0.1	–	98.8	–	0.00972
Cc1oc2c(c1CC(=O)Nc1nc(-c3ccc(F)c(C(F)(F)F)c3)c(C)s1)c(=O)n(C)c(=O)n2C [Example 90, N1-{4-[4-Fluoro-3-(trifluoromethyl)phenyl]-5-methyl-1,3-thiazol-2-yl}-2-(1,3,6-trimethyl-2,4-dioxo-1,2,3,4-tetrahydrofuro[2,3-d]pyrimidin-5-yl)acetamide]	–	–	99.5	98	0.0142
